# Where a SMILES comes first, the peptide text is derived from it.
# Test: Water solubility of peptides when preparing stock solutions
# Format: physicochemical
# Conditions: stock solution in sterile distilled water or 100% DMSO; read-out: solubility of peptide (water soluble or water insoluble, dissolved in DMSO)
# Protocol: For challenge, peptides were administered as follows: • Individual peptides (soluble). Individual water soluble peptides were dissolved as 10, 5 or 2.5 mg/ml stock solutions in sterile distilled water. Before use, each peptide was diluted in water to 2 mg/ml and 10 μl of this 2 mg/ml mix was added to 990 μl of media. Then 100 μl of this peptide/media mix was added to 100 μl of media containing 350,000 PBMC in an ELISPOT anti-IL-4 coated cell culture plate well for a final peptide concentration of 10 μg/ml. Identically diluted media only was added to the cells and used for the no peptide media control wells (media only). • Individual peptides (DMSO). Individual water insoluble peptides were dissolved in 100% DMSO to a stock concentration of 50 mg/ml. Before use each peptide was diluted in water to 2 mg/ml and then 10 μl of the 2 mg/ml mix was added to 990 μl of cell-culture media. Then 100 μl of this peptide/media mix was added to 100 μl of media containing 350,000 PBMC in an ELISPOT anti-IL-4 coated cell culture plate well for a final peptide concentration of 10 μg/ml. Identically diluted media only was added to the cells and used for the no peptide media control wells (media only). • A combination preparation containing Alt a 1 soluble peptides (33.2, 34.3, 35.4, 35.5, 37.3.1, 37.4.1, L6-5.01, L10-1.01, L10-2.01, L10-3), called Alt a 1 Sol. Each peptide was diluted from water stock to 2 mg/ml in sterile distilled water. Then 10 μl of each peptide required for the combined preparation was mixed and brought up to 1 ml in media. Then 100 μl of this peptide/media mix was added to 100 μl of media containing 350,000 PBMC in an ELISPOT anti-IL-4 coated cell culture plate well for a final concentration of each peptide of 10 μg/ml. Identically diluted media only was used for the no peptide control wells (media only). • A combination preparation containing Alt a 1 DMSO peptides (32.2.1, 38.2.1, 35.2, 35.3, L6-2, L6-3, L6-4, 38.3, 37.2), called Alt a 1 DMSO. Each peptide was diluted from DMSO stock to 2 mg/ml in sterile distilled water. Then 10 μl of each peptide required for the combined preparation was mixed and brought up to 1 ml in media. Then 100 μl of this peptide/media mix is added to 100 μl of media containing 350,000 PBMC in an ELISPOT anti-IL-4 coated cell culture plate well for a final concentration of each peptide of 10 μg/ml. Identically diluted media only was used for the no peptide control wells (media only). • A combination preparation containing non-Alt a 1 soluble peptides (40.2, 41.2, 43.2, 44.2, 46.2, 47.2.1, 56.2, 57.2.1, 60.2, 62.2.1, 67.2, 71.3), called Alt a Other Sol. Each peptide was diluted from water stock to 2 mg/ml in sterile distilled water. Then 10 μl of each peptide required for the combined preparation was mixed and brought up to 1 ml in media, Then 100 μl of this peptide/media mix was added to 100 μl of media containing 350,000 PBMC in an ELISPOT anti-IL-4 coated cell culture plate well for a final concentration of each peptide at 10 μg/ml. Identically diluted media only was used for the no peptide control wells (media only). • A combination preparation containing non-Alt a 1 DMSO peptides (39.2, 42.2, 45.2, 48.2.1, 50.2, 51.2.1, 61.2.1, 66.3.1, 68.2.1, 70.2, 71.2, 72.2), called Alt a Other DMSO. Each peptide was diluted from DMSO stock to 2 mg/ml in sterile distilled water. Then 10 ul of each peptide required for the combined preparation was mixed and brought up to 1 ml in media, Then 100 μl of this peptide/media mix was added to 100 μl of media containing 350,000 PBMC in an ELISPOT anti-IL-4 coated cell culture plate well for a final concentration of each peptide at 10 μg/ml. Identically diluted media only was used for the no peptide control wells (media only).
row,SMILES,solubility [µg/mL]
1,"CC(C)C[C@H](NC(=O)[C@H](C)NC(=O)[C@H](CCCNC(=N)N)NC(=O)[C@H](C)N)C(=O)N[C@@H](CCCNC(=N)N)C(=O)N[C@@H](CCCNC(=N)N)C(=O)N[C@@H](CC(C)C)C(=O)N[C@@H](CCCNC(=N)N)C(=O)N[C@H](C(=O)N[C@@H](C)C(=O)N[C@@H](CS)C(=O)N[C@@H](CCC(=O)O)C(=O)N[C@@H](CCCNC(=N)N)C(=O)N[C@@H](C)C(=O)N[C@@H](CCCCN)C(=O)O)[C@@H](C)O [Peptide 41.2, ARALRRLRTACERAK] (H-ARALRRLRTACERAK-OH; N-terminus and C-terminus assumed)",> 2500
2,"CC[C@H](C)[C@H](NC(=O)[C@H](CCC(=O)O)NC(=O)[C@H](CC(=O)O)NC(=O)[C@@H]1CCCN1)C(=O)N[C@@H](CCC(N)=O)C(=O)NCC(=O)N[C@@H](Cc1ccccc1)C(=O)N1CCC[C@H]1C(=O)N[C@H](C(=O)N[C@H](C(=O)N[C@@H](CCCCN)C(=O)N[C@@H](CC(C)C)C(=O)N[C@@H](Cc1ccccc1)C(=O)N1CCC[C@H]1C(=O)N[C@@H](C)C(=O)O)[C@@H](C)CC)[C@@H](C)O [Peptide 43.2, PDEIQGFPTIKLFPA] (H-PDEIQGFPTIKLFPA-OH)",> 2500
3,"CC[C@H](C)[C@H](NC(=O)[C@H](CCC(N)=O)NC(=O)CNC(=O)[C@H](CO)NC(=O)[C@H](CCCNC(=N)N)NC(=O)[C@H](CC(C)C)NC(=O)CNC(=O)[C@@H](NC(=O)[C@@H](NC(=O)[C@@H](NC(=O)[C@H](CC(=O)O)NC(=O)[C@H](C)N)[C@@H](C)CC)C(C)C)C(C)C)C(=O)N[C@@H](CCCCN)C(=O)N[C@H](C(=O)NCC(=O)O)[C@@H](C)O [Peptide 44.2, ADIVVGLRSGQIKTG] (H-ADIVVGLRSGQIKTG-OH)",> 2500
4,"CC(C)C[C@H](NC(=O)[C@@H](NC(=O)CNC(=O)[C@@H](NC(=O)[C@H](CO)NC(=O)[C@@H](NC(=O)[C@H](Cc1ccccc1)NC(=O)[C@@H](NC(=O)CNC(=O)[C@H](C)N)C(C)C)C(C)C)[C@@H](C)O)[C@@H](C)O)C(=O)NCC(=O)NCC(=O)NCC(=O)N[C@@H](CCC(N)=O)C(=O)N[C@@H](CCC(=O)O)C(=O)O [Peptide 45.2, AGVFVSTGTLGGGQE] (H-AGVFVSTGTLGGGQE-OH)",< 2500
5,"CC[C@H](C)[C@H](NC(=O)[C@@H](NC(=O)[C@@H](NC(=O)[C@H](CCCCN)NC(=O)CNC(=O)[C@@H](N)CCCCN)C(C)C)C(C)C)C(=O)N[C@H](C(=O)N[C@H](C(=O)NCC(=O)N[C@@H](C)C(=O)N[C@@H](CO)C(=O)NCC(=O)N1CCC[C@H]1C(=O)N[C@H](C(=O)NCC(=O)O)[C@@H](C)O)[C@@H](C)O)C(C)C [Peptide 46.2, KGKVVIVTGASGPTG] (H-KGKVVIVTGASGPTG-OH)",> 2500
6,"CC[C@H](C)[C@H](NC(=O)[C@H](Cc1c[nH]cn1)NC(=O)CNC(=O)[C@H](CO)NC(=O)[C@H](CC(C)C)NC(=O)[C@H](CO)NC(=O)[C@H](CO)NC(=O)[C@@H](NC(=O)[C@@H](NC(=O)[C@@H](NC(=O)[C@H](CC(C)C)NC(=O)[C@H](CO)NC(=O)CNC(=O)[C@@H](N)[C@@H](C)O)C(C)C)[C@@H](C)CC)[C@@H](C)O)C(=O)N[C@@H](C)C(=O)O [Peptide 47.2.1, TGSLVITSSLSGHIA] (H-TGSLVITSSLSGHIA-OH)",> 2500
7,"CC[C@H](C)[C@H](NC(=O)[C@H](C)NC(=O)[C@H](Cc1c[nH]c2ccccc12)NC(=O)[C@@H](N)C(C)C)C(=O)N[C@H](C(=O)N[C@@H](CC(C)C)C(=O)N[C@@H](CC(C)C)C(=O)N[C@@H](CO)C(=O)N[C@@H](CC(C)C)C(=O)N[C@H](C(=O)N[C@@H](CCC(N)=O)C(=O)N[C@@H](CC(C)C)C(=O)N[C@H](C(=O)N[C@H](C(=O)N1CCC[C@H]1C(=O)O)[C@@H](C)O)[C@@H](C)O)C(C)C)C(C)C [Peptide 48.2.1, VWAIVLLSLVQLTTP] (H-VWAIVLLSLVQLTTP-OH)",< 2500
8,"CC[C@H](C)[C@H](NC(=O)CNC(=O)[C@@H](N)C(C)C)C(=O)N[C@@H](Cc1ccccc1)C(=O)N[C@@H](CCCNC(=N)N)C(=O)N[C@@H](CC(=O)O)C(=O)N[C@@H](CC(=O)O)C(=O)N[C@@H](CCCNC(=N)N)C(=O)N[C@H](C(=O)N[C@@H](CCC(=O)O)C(=O)N[C@H](C(=O)N[C@H](C(=O)N[C@@H](C)C(=O)N[C@@H](CC(N)=O)C(=O)N[C@@H](CC(=O)O)C(=O)O)[C@@H](C)CC)[C@@H](C)CC)[C@@H](C)CC [Peptide 50.2, VGIFRDDRIEIIAND] (H-VGIFRDDRIEIIAND-OH; N-terminus and C-terminus assumed)",< 2500
9,"CC(C)C[C@H](NC(=O)[C@H](C)NC(=O)[C@@H](NC(=O)[C@H](CCC(N)=O)NC(=O)[C@H](CC(N)=O)NC(=O)[C@@H](N)CCCCN)C(C)C)C(=O)N[C@@H](CC(N)=O)C(=O)N1CCC[C@H]1C(=O)N[C@H](C(=O)N[C@@H](CC(N)=O)C(=O)N[C@H](C(=O)N[C@H](C(=O)N[C@@H](Cc1ccccc1)C(=O)N[C@@H](CC(=O)O)C(=O)N[C@@H](C)C(=O)O)C(C)C)[C@@H](C)O)C(C)C [Peptide 51.2.1, KNQVALNPVNTVFDA] (H-KNQVALNPVNTVFDA-OH)",< 2500
10,"CC[C@H](C)[C@H](NC(=O)[C@@H](NC(=O)[C@@H](NC(=O)[C@H](CC(C)C)NC(=O)[C@H](CCCCN)NC(=O)[C@H](CO)NC(=O)[C@@H](N)CC(C)C)C(C)C)[C@@H](C)O)C(=O)N[C@@H](C)C(=O)N[C@@H](CCCCN)C(=O)N[C@H](C(=O)N[C@@H](CC(=O)O)C(=O)N[C@@H](C)C(=O)N[C@H](C(=O)N[C@@H](CC(C)C)C(=O)N[C@@H](CC(N)=O)C(=O)O)[C@@H](C)O)C(C)C [Peptide 56.2, LSKLVTIAKVDATLN] (H-LSKLVTIAKVDATLN-OH)",> 2500
11,"CC(C)C[C@H](NC(=O)CNC(=O)[C@H](CC(C)C)NC(=O)[C@H](CC(C)C)NC(=O)[C@H](CC(C)C)NC(=O)[C@H](Cc1ccc(O)cc1)NC(=O)[C@H](C)NC(=O)[C@H](C)NC(=O)[C@H](CC(C)C)NC(=O)[C@H](Cc1c[nH]cn1)NC(=O)[C@H](CCCCN)NC(=O)[C@@H](N)CC(C)C)C(=O)NCC(=O)NCC(=O)N[C@@H](CC(N)=O)C(=O)O [Peptide 57.2.1, LKHLAAYLLLGLGGN] (H-LKHLAAYLLLGLGGN-OH)",> 2500
12,"CC(C)C[C@H](NC(=O)[C@H](C)NC(=O)[C@H](CCCCN)NC(=O)[C@H](CC(C)C)NC(=O)[C@H](CCCCN)NC(=O)[C@H](CCC(N)=O)NC(=O)[C@H](Cc1ccc(O)cc1)NC(=O)[C@@H](NC(=O)[C@H](CCC(=O)O)NC(=O)[C@H](C)N)C(C)C)C(=O)N[C@@H](C)C(=O)N[C@@H](CCCCN)C(=O)N[C@@H](CCCCN)C(=O)N[C@H](C(=O)N[C@@H](Cc1ccc(O)cc1)C(=O)O)[C@@H](C)O [Peptide 60.2, AEVYQKLKALAKKTY] (H-AEVYQKLKALAKKTY-OH)",> 2500
13,"CC[C@H](C)[C@H](NC(=O)[C@H](C)N)C(=O)N[C@@H](CCC(=O)O)C(=O)N[C@@H](CC(C)C)C(=O)N[C@@H](CCCCN)C(=O)N[C@@H](CO)C(=O)N[C@H](C(=O)N[C@@H](CC(N)=O)C(=O)N[C@@H](C)C(=O)N[C@@H](CC(C)C)C(=O)N[C@@H](CC(C)C)C(=O)N[C@@H](CC(C)C)C(=O)N[C@@H](CCCCN)C(=O)N[C@H](C(=O)N[C@@H](CC(N)=O)C(=O)O)C(C)C)C(C)C [Peptide 61.2.1, AIELKSVNALLLKVN] (H-AIELKSVNALLLKVN-OH)",< 2500

# — US20130259884A1, “PEPTIDES” ([…] SL, priority 2010, published 2013)
